Experimental data taken from ChEMBL document CHEMBL2413072, “Synthesis and in vitro anticancer studies of novel C-2 arylidene congeners of lantadenes” (2013).

What was measured:
Format in all cases: functional
SK-MEL-5 = test: Growth inhibition of human SK-MEL-5 cells assessed as cell growth at 10^-7 M by sulforhodamine B assay; details: read-out: Activity
NCI-H460 [1] = test: Growth inhibition of human NCI-H460 cells assessed as cell growth at 10^-6 M by sulforhodamine B assay; details: read-out: Activity
HOP-92 = test: Growth inhibition of human HOP92 cells assessed as cell growth at 10^-8 M by sulforhodamine B assay; details: read-out: Activity
UO-31 = test: Growth inhibition of human UO31 cells assessed as cell growth at 10^-7 M by sulforhodamine B assay; details: read-out: Activity
CCRF-CEM [2] = test: Growth inhibition of human CCRF-CEM cells assessed as cell growth at 10^-7 M by sulforhodamine B assay; details: read-out: Activity
A549 = test: Growth inhibition of human A549/ATCC cells assessed as cell growth at 10^-6 M by sulforhodamine B assay; details: read-out: Activity
MDA-MB-231 = test: Growth inhibition of human MDA-MB-231 cells assessed as cell growth at 10^-7 M by sulforhodamine B assay; details: read-out: Activity
SNB-75 [3] = test: Growth inhibition of human SNB75 cells by sulforhodamine B assay
M14 [4] = test: Growth inhibition of human M14 cells assessed as cell growth at 10^-4 M by sulforhodamine B assay; details: read-out: Activity
LOX IMVI = test: Growth inhibition of human LOXIMVI cells by sulforhodamine B assay
786-0 = test: Growth inhibition of human 786-0 cells assessed as cell growth at 10^-7 M by sulforhodamine B assay; details: read-out: Activity
T47D = test: Growth inhibition of human T47D cells assessed as cell growth at 10^-6 M by sulforhodamine B assay; details: read-out: Activity
COLO 205 [5] = test: Growth inhibition of human COLO205 cells by sulforhodamine B assay
MDA-MB-435 = test: Growth inhibition of human MDA-MB-435 cells by sulforhodamine B assay
OVCAR-8 = test: Growth inhibition of human OVCAR8 cells assessed as cell growth at 10^-7 M by sulforhodamine B assay; details: read-out: Activity
UACC-62 = test: Growth inhibition of human UACC62 cells assessed as cell growth at 10^-8 M by sulforhodamine B assay; details: read-out: Activity
NCI-H460 [6] = test: Growth inhibition of human NCI-H460 cells assessed as cell growth at 10^-8 M by sulforhodamine B assay; details: read-out: Activity
UACC-257 = test: Growth inhibition of human UACC257 cells assessed as cell growth at 10^-8 M by sulforhodamine B assay; details: read-out: Activity
U-251 = test: Growth inhibition of human U251 cells assessed as cell growth at 10^-4 M by sulforhodamine B assay; details: read-out: Activity
SK-MEL-2 = test: Growth inhibition of human SK-MEL-2 cells assessed as cell growth at 10^-7 M by sulforhodamine B assay; details: read-out: Activity
HOP-62 = test: Growth inhibition of human HOP62 cells assessed as cell growth at 10^-8 M by sulforhodamine B assay; details: read-out: Activity
MCF7 = test: Growth inhibition of human MCF7 cells assessed as cell growth at 10^-7 M by sulforhodamine B assay; details: read-out: Activity
M14 [7] = test: Growth inhibition of human M14 cells assessed as cell growth at 10^-7 M by sulforhodamine B assay; details: read-out: Activity
COLO 205 [8] = test: Growth inhibition of human COLO205 cells assessed as cell growth at 10^-7 M by sulforhodamine B assay; details: read-out: Activity
CCRF-CEM [9] = test: Growth inhibition of human CCRF-CEM cells assessed as cell growth at 10^-4 M by sulforhodamine B assay; details: read-out: Activity
CAKI-1 = test: Growth inhibition of human CAKI-1 cells assessed as cell growth at 10^-4 M by sulforhodamine B assay; details: read-out: Activity
ACHN = test: Growth inhibition of human ACHN cells by sulforhodamine B assay
NCI-H522 = test: Growth inhibition of human NCI-H522 cells assessed as cell growth at 10^-7 M by sulforhodamine B assay; details: read-out: Activity
OVCAR-5 [10] = test: Growth inhibition of human OVCAR5 cells assessed as cell growth at 10^-6 M by sulforhodamine B assay; details: read-out: Activity
SNB-19 = test: Growth inhibition of human SNB19 cells assessed as cell growth at 10^-7 M by sulforhodamine B assay; details: read-out: Activity
SF-539 = test: Growth inhibition of human SF539 cells by sulforhodamine B assay
SNB-75 [11] = test: Growth inhibition of human SNB75 cells assessed as cell growth at 10^-8 M by sulforhodamine B assay; details: read-out: Activity
SNB-75 [12] = test: Growth inhibition of human SNB75 cells assessed as cell growth at 10^-7 M by sulforhodamine B assay; details: read-out: Activity
Malme-3M = test: Growth inhibition of human MALME-3M cells by sulforhodamine B assay
M14 [13] = test: Growth inhibition of human M14 cells assessed as cell growth at 10^-6 M by sulforhodamine B assay; details: read-out: Activity
RPMI-8226 = test: Growth inhibition of human RPMI8226 cells assessed as cell growth at 10^-6 M by sulforhodamine B assay; details: read-out: Activity
SN12C = test: Growth inhibition of human SN12C cells assessed as cell growth at 10^-8 M by sulforhodamine B assay; details: read-out: Activity
HL-60(TB) = test: Growth inhibition of human HL-60(TB) cells assessed as cell growth at 10^-7 M by sulforhodamine B assay; details: read-out: Activity
OVCAR-5 [14] = test: Growth inhibition of human OVCAR5 cells assessed as cell growth at 10^-4 M by sulforhodamine B assay; details: read-out: Activity
PC-3 = test: Growth inhibition of human PC3 cells assessed as cell growth at 10^-8 M by sulforhodamine B assay; details: read-out: Activity
TK-10 = test: Growth inhibition of human TK10 cells assessed as cell growth at 10^-6 M by sulforhodamine B assay; details: read-out: Activity
[15] = read-out: LC50 (the source's name)
[16] = read-out: pLC50 (the source's name) (converted)

SMILES: C/C=C(/C)C(=O)O[C@@H]1CC(C)(C)C[C@H]2C3=CC[C@@H]4[C@@]5(C)CCC(=O)C(C)(C)[C@@H]5CC[C@@]4(C)[C@]3(C)CC[C@@]12C(=O)O [LANTADENE A]
- growth at 0.1 µM (SK-MEL-5): 83%
- growth at 1 µM (NCI-H460 [1]): 92%
- growth at 0.01 µM (HOP-92): 87%
- growth at 0.1 µM (UO-31): 94%
- growth at 0.1 µM (CCRF-CEM [2]): 97%
- growth at 1 µM (A549): 80%
- growth at 0.1 µM (MDA-MB-231): 101%
- GI50 (SNB-75 [3]; read-out: GI50): 14.2 µM
- CC50 (SNB-75 [3]; [15]): > 100 µM
- TGI (SNB-75 [3]; read-out: TGI): > 100 µM
- GI50 (SNB-75 [3]; read-out: pGI50 (converted)): 14.1 µM
- CC50 (SNB-75 [3]; [16]): > 100 µM
- TGI (SNB-75 [3]; read-out: pTGI (converted)): > 100 µM
- growth at 100 µM (M14 [4]): 23%
- GI50 (LOX IMVI; read-out: GI50): 7.8 µM
- CC50 (LOX IMVI; [15]): > 100 µM
- TGI (LOX IMVI; read-out: TGI): > 100 µM
- GI50 (LOX IMVI; read-out: pGI50 (converted)): 7.76 µM
- CC50 (LOX IMVI; [16]): > 100 µM
- TGI (LOX IMVI; read-out: pTGI (converted)): > 100 µM
- growth at 0.1 µM (786-0): 94%
- growth at 1 µM (T47D): 93%
- GI50 (COLO 205 [5]; read-out: GI50): 2.64 µM
- LC50 (COLO 205 [5]; read-out: LC50): 89.7 µM
- TGI (COLO 205 [5]; read-out: TGI): 6.8 µM
- GI50 (COLO 205 [5]; read-out: pGI50 (converted)): 2.63 µM
- LC50 (COLO 205 [5]; read-out: pLC50 (converted)): 89.1 µM
- TGI (COLO 205 [5]; read-out: pTGI (converted)): 6.76 µM
- GI50 (MDA-MB-435; read-out: GI50): 5.24 µM
- CC50 (MDA-MB-435; [15]): > 100 µM
- TGI (MDA-MB-435; read-out: TGI): > 100 µM
- GI50 (MDA-MB-435; read-out: pGI50 (converted)): 5.25 µM
- CC50 (MDA-MB-435; [16]): > 100 µM
- TGI (MDA-MB-435; read-out: pTGI (converted)): > 100 µM
- growth at 0.1 µM (OVCAR-8): 98%
- growth at 0.01 µM (UACC-62): 97%
- growth at 0.01 µM (NCI-H460 [6]): 104%
- growth at 0.01 µM (UACC-257): 96%
- growth at 100 µM (U-251): 6%
- growth at 0.1 µM (SK-MEL-2): 115%
- growth at 0.01 µM (HOP-62): 92%
- growth at 0.1 µM (MCF7): 90%
- growth at 0.1 µM (M14 [7]): 91%
- growth at 0.1 µM (COLO 205 [8]): 110%
- growth at 100 µM (CCRF-CEM [9]): 9%
- growth at 100 µM (CAKI-1): 20%
- GI50 (ACHN; read-out: GI50): 4.94 µM
- CC50 (ACHN; [15]): > 100 µM
- TGI (ACHN; read-out: TGI): > 100 µM
- GI50 (ACHN; read-out: pGI50 (converted)): 4.9 µM
- CC50 (ACHN; [16]): > 100 µM
- TGI (ACHN; read-out: pTGI (converted)): > 100 µM
- growth at 0.1 µM (NCI-H522): 97%
- growth at 1 µM (OVCAR-5 [10]): 98%
- growth at 0.1 µM (SNB-19): 89%
- GI50 (SF-539; read-out: GI50): 6.51 µM
- CC50 (SF-539; [15]): > 100 µM
- TGI (SF-539; read-out: TGI): > 100 µM
- GI50 (SF-539; read-out: pGI50 (converted)): 6.46 µM
- CC50 (SF-539; [16]): > 100 µM
- TGI (SF-539; read-out: pTGI (converted)): > 100 µM
- growth at 0.01 µM (SNB-75 [11]): 86%
- growth at 0.1 µM (SNB-75 [12]): 89%
- GI50 (Malme-3M; read-out: GI50): 7.91 µM
- CC50 (Malme-3M; [15]): > 100 µM
- TGI (Malme-3M; read-out: TGI): > 100 µM
- GI50 (Malme-3M; read-out: pGI50 (converted)): 7.94 µM
- CC50 (Malme-3M; [16]): > 100 µM
- TGI (Malme-3M; read-out: pTGI (converted)): > 100 µM
- growth at 1 µM (M14 [13]): 80%
- growth at 1 µM (RPMI-8226): 64%
- growth at 0.01 µM (SN12C): 97%
- growth at 0.1 µM (HL-60(TB)): 96%
- growth at 100 µM (OVCAR-5 [14]): 42%
- growth at 0.01 µM (PC-3): 93%
- growth at 1 µM (TK-10): 101%
